{"source": "patent US20220046917A1", "about": "“ATTRACTANT BLEND COMPOSITIONS, DEVICES AND METHODS FOR ATTRACTING FEMALE MICE” (priority 2020, published 2022)", "key": {"[1]": {"system": "wild mice", "assay": "Experiment 3: field experiment, captures in paired baited trap boxes", "format": "in vivo, Mus musculus", "conditions": "Exp. 3, paired trap boxes", "method": "(§1) Each replicate (n=49) consisted of paired trap boxes as depicted in FIG. 4. The paired trap boxes, PROTECTA® Mouse, Bell Laboratories Inc. Madison, Wis.\n(§2) Twice every week, paired trap boxes were checked, and food lures and pheromone lures replaced. Whenever a mouse had been captured, its sex and age (juvenile or adult based on body size and genitalia development) were recorded, and a new trap box and snap trap were deployed. […] The position of the treatment and the control trap within paired trap boxes was re-randomized after each capture.\n(§3) Experiments 3 and 4 evaluated the respective abilities of the CPCs and a blend of brevicomin and thiazole to enhance the attractiveness of testosterone. […] Specifically, in Experiment 3, the treatment box in each pair was baited with brevicomin (1 mg) and thiazole (1 mg) formulated in mineral oil (10 ml) and contained in a 20-ml glass scintillation vial. […] To minimize any potential sources of error, treatment and control trap boxes in each experiment were fitted with the same glassware and volume of mineral oil."}, "[2]": {"system": "wild mice", "assay": "Experiment 4: field experiment, captures in paired baited trap boxes", "format": "in vivo, Mus musculus", "conditions": "Exp. 4, paired trap boxes", "method": "as §1, §2, §3"}}}
{"molecule": "C[C@]12CC[C@H]3[C@@H](CCC4=CC(=O)CC[C@@]43C)[C@@H]1CC[C@@H]2O", "note": "[testosterone]", "values": [{"measurement": "adult female mice captured", "setting": "[1]", "value": "one"}, {"measurement": "adult females captured", "setting": "[2]", "value": "four"}, {"measurement": "adult males captured", "setting": "[2]", "value": "seven"}, {"measurement": "juvenile male captured", "setting": "[2]", "value": "one"}]}
